This note sets out measurements from patent US20080145358A1, “Method for Determining Responsiveness to Chk1 Inhibitors” (ASTRAZENECA AB, priority 2005, published 2008).

Experiment [1] deals with phospho-CHK. The experiment can be described thus: Western blot of phospho-CHK after DNA damaging agents in SW620 and or HT29 cells. In kind it is cell-based. The following applies: titration of DNA damaging agent, 8 hour incubation. As for the experimental part: Cell were then treated with a titration of DNA damaging agents (SN-38 (CQ International, China), doxorubicin (Sigma-Aldrich, MO) or gemcitabine (CQ International, China)). Cells were then harvested after an 8 hour incubation with DNA damaging agents in Onyx lysis buffer with protease and phosphatase inhibitors (20 mM Tris, 137 mM Na Cl, […], 1% Triton X, 10% glycerol, 1.5 mM MgCl2, 1:100 dilution of Calbiochem Phophatase Inhibitor Cocktail set II, 10 mM β-glycerophosphate, 1 mM DTT, 7 μg/ml PMSF, 20KIU/ml aprotinin, 1 mM Pefabloc, 0.1 mg/ml leupeptin). Protein lysates were then generated, protein concentration determined and equal protein loaded and analyzed by Western blot analysis using a 1:100 dilution of phospho-CHK rabbit monoclonal antibody (Ser 345) (133D3) acquired from Cell Signaling (Beverly, Mass.). […] To further characterize the CHK1 activation, SW620 and HT29 cells were treated with gemcitabine (100 nM) or SN38 (100 nM) and cells harvested at different times (from 30 minutes to 24 hours). […] A panel of tumor cell lines was then examined to determine how broadly in tumor cells CHK was activated and whether p53 status impacted CHK activation. The panel of cell lines were plated and treated for 8 hours with 100 nM of gemcitabine. Cell lysates were harvested and evaluated for phospho-CHK upregulation.

Experiment [2] relates to phospho-CHK. The experiment can be described thus: Western blot of phospho-CHK in SW620 cells, gemcitabine and CHK inhibitor combination. In kind it is cell-based. The following applies: 8 hours, 100 nM gemcitabine alone or 30, 100 or 500 nM CHK inhibitor alone. As for the experimental part: Cell were then treated with 100 nM gemcitabine or 30 nM, 100 nM or 500 nM CHK inhibitor or a combination of 100 nM gemcitabine and 30 nM, 100 nM or 500 nM for 8 hours. One set of cells were then harvested for Western blot analysis. Media containing compounds were removed from the remaining cells and fresh tissue culture media added back.
In general terms: In western blotting, separated proteins are transferred to a membrane and probed.

In experiment [3] the test system is phospho-CHK. The experiment in a line: Phospho-CHK immunohistochemistry (IHC) in HeLa or A549 cells, Metamorph quantitation. In kind it is cell-based. The settings on record: 100 nM gemcitabine, 5 hours, FIG. 1.
Procedure: Phospho-CHK regulation was also examined by immunohistochemistry (IHC). […] Cells were fixed with 4% PFA in PBS (8 minutes room temperature), permeabilized with 0.5% Triton-X in PBS, washed with PBS and washed with 0.05% Tween 20 in PBS. Cells were then blocked with 10% Goat serum for 1 hour at room temperature, incubated with 1:50 dilution of phospho-CHK rabbit monoclonal antibody ([MUT]) (133D3) acquired from Cell Signaling (Beverly, Mass.) in 10% goat serum for 90 minutes, washed twice with PBS and once with 05% Tween 20 in PBS. […] Phospho-CHK staining was then quantitated using Metamorph analysis (Universal Imaging Corp, Dowington, Pa.).
Experiment [4] concerns phospho-CHK. The experiment in a line: Western blot of phospho-CHK in H460 (dominant negative p53) xenograft tumors. In kind it is in vivo, nude rats. The settings on record: 20 mg/kg IV. How it is done:
1×10^7 H460 cells expressing dominant negative p53 were injected into the right flank of male nude rats which had been irradiated with 5 Gy radiation 6 days prior to implantation. At day 20 when the tumors reached a size of […], animals were dosed IV with 20 mg/kg gemcitabine in 0.9% saline. Tumors were then harvested at varying time points including 1.5, 2, 2.5, 4, 6, 8 and 24 hours following gemcitabine dosing.

Another experiment has as its system phosphorylated CHK1. The experiment can be described thus: Phosphorylated CHK1 staining (H-score) of hair follicles in skin biopsies. In kind it is in vivo, nude mice. The following applies: gemcitabine 30 or 60 mg/kg IV alone or Chk inhibitor 5, 20 or 40 mg/kg IV alone, seven hours.
Experiment [5] relates to phospho-CHK. The experiment can be described thus: Western blot of phospho-CHK in a panel of tumor cell lines. In kind it is cell-based. The following applies: 100 nM, 8 hours.
Procedure: Cell were then treated with a titration of DNA damaging agents (SN-38 (CQ International, China), doxorubicin (Sigma-Aldrich, MO) or gemcitabine (CQ International, China)). […] Protein lysates were then generated, protein concentration determined and equal protein loaded and analyzed by Western blot analysis using a 1:100 dilution of phospho-CHK rabbit monoclonal antibody ([MUT]) (133D3) acquired from Cell Signaling (Beverly, Mass.). […] A panel of tumor cell lines was then examined to determine how broadly in tumor cells CHK was activated and whether p53 status impacted CHK activation. The panel of cell lines were plated and treated for 8 hours with 100 nM of gemcitabine. Cell lysates were harvested and evaluated for phospho-CHK upregulation.
The next experiment has as its system phospho-H2AX. The experiment can be described thus: Western blot of phospho-H2AX in SW620 and or A549 cells. In kind it is cell-based. The following applies: 5 hour incubation, either compound used alone. How it is done: Cells were then harvested after a 5 hour incubation directly into SDS sample buffer (NuPAGE #NP007). Samples were then sonicated, passed through a 21 gauge needle, heated to 100° C. for 5 minutes, microcentrifuged and analyzed by Western blot analysis. Protein lysates were then generated, protein concentration determined and equal protein loaded and analyzed by Western blot analysis using a 1:5000 dilution of a mouse monoclonal anti-phospho H2AX […] (Upstate, N.Y.).

Molecules are shown by their SMILES. Some results are limits rather than exact numbers.

Source text for phosphorylated CHK1: Staining was specific to cell nuclei. […] Sections were then quantitated by H-score analysis.

On to `CCc1c2c(nc3ccc(O)cc13)-c1cc3c(c(=O)n1C2)COC(=O)[C@]3(O)CC` [SN-38], for which the “phospho-CHK level by Western blot” value with phospho-CHK [1] is “dose dependent up-regulation”.
Take `COc1cccc2c1C(=O)c1c(O)c3c(c(O)c1C2=O)C[C@@](O)(C(=O)CO)C[C@@H]3O[C@H]1C[C@H](N)[C@H](O)[C@H](C)O1` [doxorubicin]: the “phospho-CHK level by Western blot” value in the experiment on phospho-CHK [1] is “dose dependent up-regulation”.
As for `Nc1ccn([C@@H]2O[C@H](CO)[C@@H](O)C2(F)F)c(=O)n1` [gemcitabine], the “phospho-CHK level by Western blot, single agent” value in the experiment on phospho-CHK [2] is “increase in phospho-CHK”. For the same molecule, the “area of phospho-CHK signal relative to nuclear area” value with phospho-CHK [3] is listed as “large increase”. In the experiment with phospho-CHK [4], the “time of maximum activation of CHK in tumor” value was determined as 8 h and the “time to activation of CHK in tumor” value was not above 2 h. The “phospho-CHK in tumor at 24 hours” value in the experiment with phospho-CHK [4] (24 hours after dosing) is “significantly down-regulated”. Besides, the “phosphorylated CHK1 staining of hair follicles, single agent” value with phosphorylated CHK1 is listed as “No staining”. Moreover, in the experiment on phospho-CHK [5], the “phospho-CHK level by Western blot” value is “upregulated in a panel of tumor cell lines, albeit to different levels”. In the experiment with phospho-H2AX, the “phospho-H2AX by Western blot, compound alone” value is on record as “no change or a very modest change”. Further, the “phospho-CHK level by Western blot” value in the experiment on phospho-CHK [1] is given as “dose dependent up-regulation”.
